Test results: ChEMBL document CHEMBL5528031, “Synthesis and antitumor activity of cyclopentane-fused anthraquinone derivatives” (Eur J Med Chem, 2024)
≈ marks a conversion by molar mass, not a printed value. Calls of active or inactive are those of the source. The calls are words filed in the database; no cut-off is given here.

Experiments:
CAPAN-1 = test: Antiproliferative activity against human CAPAN-1 cells assessed as inhibition of cell growth incubated for 72 hrs by MTT assay; format: functional, cell-based; settings: CAPAN-1, 72 h
HCT-116 = test: Antiproliferative activity against human HCT-116 cells assessed as inhibition of cell growth incubated for 72 hrs by MTT assay; format: functional, cell-based; settings: HCT-116, 72 h
LN-229 = test: Antiproliferative activity against human LN-229 cells assessed as inhibition of cell growth incubated for 72 hrs by MTT assay; format: functional, cell-based; settings: LN-229, 72 h
NCI-H1975 = test: Antiproliferative activity against human NCI-H1975 cells assessed as inhibition of cell growth incubated for 72 hrs by MTT assay; format: functional, cell-based; settings: NCI-H1975, 72 h
Z-138 = test: Antiproliferative activity against human Z138 cells assessed as inhibition of cell growth incubated for 72 hrs by MTT assay; format: functional, cell-based; settings: Z-138, 72 h
[1] = Antiproliferative activity against human DND41 cells assessed as inhibition of cell growth incubated for 72 hrs by MTT assay; format: functional, cell-based; settings: DND41, 72 h
HL-60 = test: Antiproliferative activity against human HL-60 cells assessed as inhibition of cell growth incubated for 72 hrs by MTT assay; format: functional, cell-based; settings: HL-60, 72 h
K562 = test: Antiproliferative activity against human K562 cells assessed as inhibition of cell growth incubated for 72 hrs by MTT assay; format: functional, cell-based; settings: K562, 72 h
[2] = Antiproliferative activity against multidrug resistant human K562/4 cells expressing P-gp assessed as inhibition of cell growth incubated for 72 hrs by MTT assay; format: functional, cell-based; settings: K562/4, 72 h
[3] = Cytotoxicity against hFB-hTERT6 cells assessed as inhibition of cell growth incubated for 72 hrs by MTT assay; format: toxicity, cell-based; settings: human
Calf thymus DNA [4] = test: Binding affinity to calf thymus DNA assessed as binding constant at 10 uM by fluorescence spectroscopy analysis; format: nucleic-acid assay; settings: Bos taurus
Calf thymus DNA [5] = test: Binding affinity to calf thymus DNA assessed as dissociation constant at 10 uM by fluorescence spectroscopy analysis; format: nucleic-acid assay, Bos taurus
[6] = Solubility of compound in deionized water at pH 6; format: physicochemical
DNA = test: Binding affinity to pBR322 plasmid DNA (unknown origin) assessed as DNA intercalation by measuring reduction in electrophoretic shift at 5 to 20 uM incubated for 30 mins by EtBr staining based agarose gel electrophoresis; format: nucleic-acid assay; settings: dose 5-20 µM
[7] = target: T1, DNA topoisomerase 1 (Homo sapiens) (UniProt P11387); test: Inhibition of topoisomerase 1 (unknown origin) assessed as reduction in unwinding of supercoiled pBR322 plasmid DNA by measuring reduction in electrophoretic mobility at 20 uM incubated for 30 mins by EtBr staining based agarose gel electrophoresis
T1 sequence (whole entry): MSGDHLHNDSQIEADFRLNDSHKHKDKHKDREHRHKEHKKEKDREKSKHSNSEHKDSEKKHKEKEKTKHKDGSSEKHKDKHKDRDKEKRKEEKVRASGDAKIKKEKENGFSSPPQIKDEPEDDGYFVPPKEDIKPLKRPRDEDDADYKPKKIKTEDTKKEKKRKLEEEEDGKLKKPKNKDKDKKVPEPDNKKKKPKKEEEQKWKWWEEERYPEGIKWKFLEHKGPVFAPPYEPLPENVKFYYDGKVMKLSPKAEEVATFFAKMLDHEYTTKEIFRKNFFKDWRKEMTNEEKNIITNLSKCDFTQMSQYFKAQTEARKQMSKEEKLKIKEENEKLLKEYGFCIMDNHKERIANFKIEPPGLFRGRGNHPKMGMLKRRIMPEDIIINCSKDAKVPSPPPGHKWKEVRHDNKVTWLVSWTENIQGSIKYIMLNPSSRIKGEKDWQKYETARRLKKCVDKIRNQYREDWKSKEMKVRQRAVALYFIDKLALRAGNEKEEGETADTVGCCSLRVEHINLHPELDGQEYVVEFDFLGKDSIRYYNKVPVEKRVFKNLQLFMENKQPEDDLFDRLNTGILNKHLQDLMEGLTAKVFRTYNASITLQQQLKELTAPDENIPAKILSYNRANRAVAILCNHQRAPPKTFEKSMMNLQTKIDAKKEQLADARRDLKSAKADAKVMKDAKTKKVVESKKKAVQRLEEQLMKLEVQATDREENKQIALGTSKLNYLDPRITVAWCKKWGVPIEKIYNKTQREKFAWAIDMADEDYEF

[8] = Drug uptake in human HCT-116 cells assessed as increase in intracellular accumulation at 2 uM measured after 24 hrs by Hoechst 33342 staining based fluorescence confocal microscopic analysis; format: ADME, cell-based; settings: hct-116, 24 h
[9] = Drug uptake in hFB-hTERT6 cells; format: ADME, cell-based; settings: human
[10] = Drug uptake in human HCT-116 cells assessed as increase in intracellular accumulation at 2 uM measured after 24 hrs by flow cytometry analysis; format: ADME, cell-based; settings: hct-116, 24 h
[11] = Octanol/water partition coefficient, logP of compound at pH 7.4 by HPLC analysis; format: physicochemical

| SMILES | IC50 (HCT-116) [nM] | IC50 (NCI-H1975) [nM] | IC50 (HL-60) [nM] | IC50 (K562) [nM] | Kb (Calf thymus DNA [4]) | solubility [6] [mg/mL] | Activity (DNA) | inhibition [7] | Drug uptake [8] | Drug uptake [9] | Drug uptake [10] | IC50 (CAPAN-1) [nM] | IC50 (LN-229) [nM] | IC50 (Z-138) [nM] | IC50 [1] [nM] | IC50 [2] [nM] | IC50 at 72 h [3] [nM] | Kd (Calf thymus DNA [5]) [nM] | logD [11] |
| --- | --- | --- | --- | --- | --- | --- | --- | --- | --- | --- | --- | --- | --- | --- | --- | --- | --- | --- | --- |
| O=C1c2ccccc2C(=O)c2c(O)c3c(c(O)c21)CC(C(=O)N[C@@H]1CCNC1)C3 | 1600 | 10100 | 2300 | 2100 |  |  |  |  |  |  |  | 1600 | 5800 | 2300 | 2200 | 9200 | 4200 |  |  |
| N[C@@H]1CCN(C(=O)C2Cc3c(O)c4c(c(O)c3C2)C(=O)c2ccccc2C4=O)C1 | 1100 | 1200 | 2000 | 2000 |  |  |  |  |  |  |  | 1100 | 2000 | 2500 | 2300 | 2100 | 4700 |  |  |
| Cc1oc2c(O)c3c(c(O)c2c1C(=O)N1CC[C@H](N)C1)C(=O)c1ccccc1C3=O |  |  |  |  |  |  | inactive | Active |  |  |  |  |  |  |  |  |  |  |  |
| O=C1c2ccccc2C(=O)c2c(O)c3c(c(O)c21)CC(C(=O)NC1CN2CCC1CC2)C3 (stereo not drawn) | 1500 | 6200 | 2100 | 1600 |  |  |  |  |  |  |  | 1800 | 1900 | 2700 | 2200 | 4100 | 2400 |  |  |
| O=C1c2ccccc2C(=O)c2c(O)c3c(c(O)c21)CC(C(=O)NC1CCNCC1)C3 | 1000 | 1800 | 1500 | 1600 |  |  |  |  |  |  |  | 1700 | 1400 | 3100 | 2000 | 4500 | 4500 |  |  |
| O=C1c2ccccc2C(=O)c2c(O)c3c(c(O)c21)CC(C(=O)N1CCC(N2CCCCC2)CC1)C3 | 3100 | 3100 | 2400 | 2000 |  |  |  |  |  |  |  | 1500 | 2800 | 2500 | 1700 | 4600 | 4500 |  |  |
| CC(=O)[C@]1(O)Cc2c(O)c3c(c(O)c2[C@@H](O[C@H]2C[C@H](N)[C@H](O)[C@H](C)O2)C1)C(=O)c1c(O)cccc1C3=O [CARUBICIN] |  |  |  |  |  |  |  |  |  |  |  |  |  |  |  |  |  |  | 0.95 |
| NCCNC(=O)C1Cc2c(O)c3c(c(O)c2C1)C(=O)c1ccccc1C3=O | 1400 | 1800 | 3700 | 2100 |  |  |  |  |  |  |  | 1600 | 2600 | 2100 | 3100 | 6000 | 4000 |  |  |

Now from value to compound, other results behind:

| IC50 (HCT-116) [nM] | IC50 (NCI-H1975) [nM] | IC50 (HL-60) [nM] | IC50 (K562) [nM] | Kb (Calf thymus DNA [4]) | solubility [6] [mg/mL] | Activity (DNA) | inhibition [7] | Drug uptake [8] | Drug uptake [9] | Drug uptake [10] | SMILES | IC50 (CAPAN-1) [nM] | IC50 (LN-229) [nM] | IC50 (Z-138) [nM] | IC50 [1] [nM] | IC50 [2] [nM] | IC50 at 72 h [3] [nM] | Kd (Calf thymus DNA [5]) [nM] | logD [11] |
| --- | --- | --- | --- | --- | --- | --- | --- | --- | --- | --- | --- | --- | --- | --- | --- | --- | --- | --- | --- |
| 1400 | 2700 | 2700 | 2700 |  |  |  |  |  |  |  | O=C1c2ccccc2C(=O)c2c(O)c3c(c(O)c21)CC(C(=O)NC1CNC1)C3 | 1500 | 2900 | 2800 | 3100 | 33000 | 4300 |  |  |
| 2000 | 3800 | 2800 | 2800 | 0.31 10^6/M |  |  |  |  |  |  | N[C@@H]1CN(C(=O)C2Cc3c(O)c4c(c(O)c3C2)C(=O)c2ccccc2C4=O)C[C@H]1N | 1700 | 3900 | 2600 | 2300 | 35000 | 23000 | 3200 |  |
| 2100 | 6500 | 2700 | 2000 |  |  |  |  |  |  |  | N[C@H]1CC[C@H](NC(=O)C2Cc3c(O)c4c(c(O)c3C2)C(=O)c2ccccc2C4=O)CC1 | 1900 | 4500 | 2600 | 2500 | 8800 | 4500 |  |  |
| 24300 | 18100 | > 50000 | > 50000 |  | ~1.7 (≈ 4.18 mM) |  |  |  |  |  | CN1CCN(C(=O)C2Cc3c(O)c4c(c(O)c3C2)C(=O)c2ccccc2C4=O)CC1 | 35200 | 35000 | 36200 | 10100 | > 50000 | > 50000 |  |  |
| > 50000 | > 50000 | > 50000 | > 50000 | 0.011 10^6/M |  | inactive |  | Not Active | Not Active | Not Active | O=C1c2ccccc2C(=O)c2c(O)c3c(c(O)c21)CC(C(=O)NCCOCCO)C3 | > 50000 | > 50000 | > 50000 | > 50000 | > 50000 | > 50000 | 90000 |  |
| 1300 | 8800 | 1200 | 1300 |  | 46 (≈ 117 mM) |  |  |  |  |  | O=C1c2ccccc2C(=O)c2c(O)c3c(c(O)c21)CC(C(=O)N1CCNCC1)C3 | 1400 | 5000 | 2100 | 1700 | 2200 | 4000 |  |  |
| 2100 | 3300 | 45000 | 3700 |  |  |  |  |  |  |  | NCCCNC(=O)C1Cc2c(O)c3c(c(O)c2C1)C(=O)c1ccccc1C3=O | 3600 | 3900 | > 50000 | 43000 | 7800 | 6500 |  |  |
| 1500 | 2300 | 2300 | 2400 |  |  |  |  |  |  |  | O=C1c2ccccc2C(=O)c2c(O)c3c(c(O)c21)CC(C(=O)N[C@H]1CCNC1)C3 | 1500 | 5100 | 1800 | 1900 | 4800 | 4200 |  |  |
| 1300 | 1800 | 2300 | 1900 |  |  |  |  |  |  |  | NCCN(CCN)C(=O)C1Cc2c(O)c3c(c(O)c2C1)C(=O)c1ccccc1C3=O | 1600 | 1600 | 2500 | 2400 | 18000 | 2300 |  |  |
| 3200 | 4600 | 1900 | 1700 |  |  |  |  |  |  |  | O=C1c2ccccc2C(=O)c2c(O)c3c(c(O)c21)CC(C(=O)NC1CCCNC1)C3 (stereo not drawn) | 1000 | 3500 | 2200 | 1500 | 3200 | 4200 |  |  |
| 3200 | 4600 | 1900 | 1700 |  |  |  |  |  |  |  | NC1CCCN(C(=O)C2Cc3c(O)c4c(c(O)c3C2)C(=O)c2ccccc2C4=O)C1 (stereo not drawn) | 1000 | 3500 | 2200 | 1500 | 1200 | 4000 |  |  |
